According to ChEMBL document CHEMBL1131037, “Structure-based design, synthesis, and biological evaluation of irreversible human rhinovirus 3C protease inhibitors. 2. Peptide structure-activity studies” (J Med Chem, 1998):

The molecules below were run on rhinovirus B14 (assay: Antiviral activity against HRV-14 in cell culture). Settings: Rhinovirus B.
Type: functional, organism-based
`CCOC(=O)/C=C/[C@H](CNC(N)=O)NC(=O)[C@H](Cc1ccccc1)NC(=O)[C@H](CC(C)C)NC(=O)OCc1ccccc1` showed an EC50 of 32 µM. `CCOC(=O)/C=C/[C@H](CCC(N)=O)NC(=O)[C@H](Cc1ccccc1)NC(=O)[C@H](CC(C)C)NC(=O)c1ccccc1` showed an EC50 of 5.2 µM. In the case of `CCOC(=O)/C=C/[C@H](CCC(N)=O)NC(=O)C(NC(=O)[C@H](CC(C)C)NC(=O)OCc1ccccc1)[C@H](C)O` (stereo not given in full), the EC50 is reported as 56 µM. `CCOC(=O)/C=C/[C@H](CCC(N)=O)NC(=O)[C@H](Cc1ccccc1)NC(=O)[C@H](CC(C)C)NC(=O)[C@@H](NC(C)=O)C(C)C` showed an EC50 of 63 µM. For `CCOC(=O)/C=C/[C@H](CO)NC(=O)[C@H](Cc1ccccc1)NC(=O)[C@H](CC(C)C)NC(=O)OCc1ccccc1`, the EC50 was greater than 190 µM. Molecule `CCOC(=O)/C=C/[C@H](CCC(N)=O)NC(=O)[C@H](Cc1ccc(C)cc1)NC(=O)[C@@H](NC(=O)SC1CCCC1)C(C)(C)C` has an EC50 of 0.056 µM. `CCOC(=O)/C=C/[C@H](CCC(N)=O)NC(=O)[C@H](C)NC(=O)[C@H](CC(C)C)NC(=O)OCc1ccccc1` was tested, and the EC50 was 20 µM. Work on `CCOC(=O)/C=C/[C@H](CCC(N)=O)NC(=O)[C@H](Cc1ccccc1)NC(=O)CNC(=O)OCc1ccccc1` yielded an EC50 of 5.6 µM. `CCOC(=O)/C=C/[C@H](CCC(N)=O)NC(=O)[C@H](Cc1ccccc1)NC(=O)[C@@H](NC(=O)OCc1ccccc1)[C@@H](C)CC` showed an EC50 of 0.79 µM. For `CCOC(=O)/C=C/[C@H](CCC(N)=O)NC(=O)[C@H](Cc1ccccc1)NC(=O)[C@H](CCc1ccccc1)NC(=O)OCc1ccccc1`, the EC50 was 0.25 µM. In the case of `CCOC(=O)/C=C/[C@H](CCC(N)=O)NC(=O)[C@H](CSC)NC(=O)[C@H](CC(C)C)NC(=O)OCc1ccccc1`, the EC50 is reported as 8.9 µM. Work on `CCOC(=O)/C=C/[C@H](CCC(N)=O)NC(=O)[C@H](Cc1ccccc1)NC(=O)[C@H](CC(C)C)NC(=O)[C@@H](NC(C)=O)[C@@H](C)O` yielded an EC50 greater than 100 µM. `CCOC(=O)/C=C/[C@H](CCC(N)=O)NC(=O)[C@H](Cc1ccccc1)NC(=O)[C@H](CCC(=O)O)NC(=O)OCc1ccccc1` gave an EC50 of 5.5 µM. For `CCOC(=O)/C=C/[C@H](CCC(N)=O)NC(=O)[C@H](CSCC)NC(=O)[C@H](CC(C)C)NC(=O)OCc1ccccc1`, the EC50 was 10 µM. With `CCOC(=O)/C=C/[C@H](CCC(=O)O)NC(=O)[C@H](Cc1ccccc1)NC(=O)[C@H](CC(C)C)NC(=O)OCc1ccccc1` the EC50 was 14 µM. `CCOC(=O)/C=C/[C@H](CCC(N)=O)NC(=O)[C@H](CC)NC(=O)[C@H](CC(C)C)NC(=O)OCc1ccccc1` was tested, and the EC50 was 6 µM. For `CCOC(=O)/C=C/[C@H](CCC(=O)NC(c1ccccc1)(c1ccccc1)c1ccccc1)NC(=O)[C@H](Cc1ccccc1)NC(=O)[C@H](CC(C)C)NC(=O)OCc1ccccc1`, the EC50 was 100 µM.

Each molecule was assayed against T1, Human rhinovirus A protease (Human rhinovirus sp.) (UniProt Q4U254) (assay: Binding affinity on human Rhinovirus 3C protease (rhinovirus serotype 14)). Settings: not given.
T1 sequence (whole entry): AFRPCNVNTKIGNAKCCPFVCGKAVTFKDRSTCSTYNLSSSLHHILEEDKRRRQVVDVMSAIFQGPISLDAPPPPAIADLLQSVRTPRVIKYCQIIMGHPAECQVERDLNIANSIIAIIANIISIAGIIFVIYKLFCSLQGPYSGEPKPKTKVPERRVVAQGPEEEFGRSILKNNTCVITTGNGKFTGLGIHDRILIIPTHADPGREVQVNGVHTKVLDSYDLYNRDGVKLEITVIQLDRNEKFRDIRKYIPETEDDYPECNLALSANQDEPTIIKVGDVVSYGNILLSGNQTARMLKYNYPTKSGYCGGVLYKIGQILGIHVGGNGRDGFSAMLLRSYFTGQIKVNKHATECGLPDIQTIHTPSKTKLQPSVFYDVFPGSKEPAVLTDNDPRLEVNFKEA
`CCOC(=O)/C=C/[C@H](CNC(N)=O)NC(=O)[C@H](Cc1ccccc1)NC(=O)[C@H](CC(C)C)NC(=O)OCc1ccccc1` gave a K obs / 1 of 3500 M⁻¹ s⁻¹. `CCOC(=O)/C=C/[C@H](CCC(N)=O)NC(=O)[C@H](Cc1ccccc1)NC(=O)[C@H](CC(C)C)NC(=O)c1ccccc1` gave a K obs / 1 of 9600 M⁻¹ s⁻¹. For `CCOC(=O)/C=C/[C@H](CCC(N)=O)NC(=O)C(NC(=O)[C@H](CC(C)C)NC(=O)OCc1ccccc1)[C@H](C)O` (stereo not given in full), the K obs / 1 was 1800 M⁻¹ s⁻¹. Molecule `CCOC(=O)/C=C/[C@H](CCC(N)=O)NC(=O)[C@H](Cc1ccccc1)NC(=O)[C@H](CC(C)C)NC(=O)[C@@H](NC(C)=O)C(C)C` has a K obs / 1 of 26700 M⁻¹ s⁻¹. Work on `CCOC(=O)/C=C/[C@H](CO)NC(=O)[C@H](Cc1ccccc1)NC(=O)[C@H](CC(C)C)NC(=O)OCc1ccccc1` yielded a K obs / 1 of 0 M⁻¹ s⁻¹. `CCOC(=O)/C=C/[C@H](CCC(N)=O)NC(=O)[C@H](C)NC(=O)[C@H](CC(C)C)NC(=O)OCc1ccccc1` was tested, and the K obs / 1 was 1300 M⁻¹ s⁻¹. Molecule `CCOC(=O)/C=C/[C@H](CCC(N)=O)NC(=O)[C@H](Cc1ccccc1)NC(=O)CNC(=O)OCc1ccccc1` has a K obs / 1 of 3800 M⁻¹ s⁻¹. `CCOC(=O)/C=C/[C@H](CCC(N)=O)NC(=O)[C@H](Cc1ccccc1)NC(=O)[C@@H](NC(=O)OCc1ccccc1)[C@@H](C)CC` gave a K obs / 1 of 31700 M⁻¹ s⁻¹. `CCOC(=O)/C=C/[C@H](CCC(N)=O)NC(=O)[C@H](Cc1ccccc1)NC(=O)[C@@H](NC(=O)OCc1ccccc1)c1ccccc1` showed a K obs / 1 of 20700 M⁻¹ s⁻¹. Work on `CCOC(=O)/C=C/[C@H](CCC(N)=O)NC(=O)[C@H](Cc1ccccc1)NC(=O)[C@H](CCc1ccccc1)NC(=O)OCc1ccccc1` yielded a K obs / 1 of 57000 M⁻¹ s⁻¹. Work on `CCOC(=O)/C=C/[C@H](CCC(N)=O)NC(=O)[C@H](CSC)NC(=O)[C@H](CC(C)C)NC(=O)OCc1ccccc1` yielded a K obs / 1 of 2900 M⁻¹ s⁻¹. Work on `CCOC(=O)/C=C/[C@H](CCC(N)=O)NC(=O)[C@H](Cc1ccccc1)NC(=O)[C@H](CC(C)C)NC(=O)[C@@H](NC(C)=O)[C@@H](C)O` yielded a K obs / 1 of 4600 M⁻¹ s⁻¹. Work on `CCOC(=O)/C=C/[C@H](CCC(N)=O)NC(=O)[C@H](Cc1ccccc1)NC(=O)[C@H](CCC(=O)O)NC(=O)OCc1ccccc1` yielded a K obs / 1 of 78900 M⁻¹ s⁻¹. Work on `CCOC(=O)/C=C/[C@H](CCC(N)=O)NC(=O)[C@H](CSCC)NC(=O)[C@H](CC(C)C)NC(=O)OCc1ccccc1` yielded a K obs / 1 of 3000 M⁻¹ s⁻¹. `CCOC(=O)/C=C/[C@H](CCC(=O)O)NC(=O)[C@H](Cc1ccccc1)NC(=O)[C@H](CC(C)C)NC(=O)OCc1ccccc1` gave a K obs / 1 of 500 M⁻¹ s⁻¹. Molecule `CCOC(=O)/C=C/[C@H](CCC(N)=O)NC(=O)[C@H](CC)NC(=O)[C@H](CC(C)C)NC(=O)OCc1ccccc1` has a K obs / 1 of 4500 M⁻¹ s⁻¹. For `CCOC(=O)/C=C/[C@H](CCC(=O)NC(c1ccccc1)(c1ccccc1)c1ccccc1)NC(=O)[C@H](Cc1ccccc1)NC(=O)[C@H](CC(C)C)NC(=O)OCc1ccccc1`, the K obs / 1 was 0 M⁻¹ s⁻¹.

These molecules were tested on rhinovirus B14 (assay: Cytotoxic activity against HRV-14 in cell culture). Settings: Rhinovirus B.
Type: functional, rhinovirus 14
With `CCOC(=O)/C=C/[C@H](CNC(N)=O)NC(=O)[C@H](Cc1ccccc1)NC(=O)[C@H](CC(C)C)NC(=O)OCc1ccccc1` the CC50 was greater than 100 µM. `CCOC(=O)/C=C/[C@H](CCC(N)=O)NC(=O)[C@H](Cc1ccccc1)NC(=O)[C@H](CC(C)C)NC(=O)c1ccccc1` was tested, and the CC50 was greater than 320 µM. `CCOC(=O)/C=C/[C@H](CCC(N)=O)NC(=O)C(NC(=O)[C@H](CC(C)C)NC(=O)OCc1ccccc1)[C@H](C)O` (stereo not given in full) was tested, and the CC50 was greater than 320 µM. `CCOC(=O)/C=C/[C@H](CCC(N)=O)NC(=O)[C@H](Cc1ccccc1)NC(=O)[C@H](CC(C)C)NC(=O)[C@@H](NC(C)=O)C(C)C` was tested, and the CC50 was greater than 100 µM. `CCOC(=O)/C=C/[C@H](CO)NC(=O)[C@H](Cc1ccccc1)NC(=O)[C@H](CC(C)C)NC(=O)OCc1ccccc1` gave a CC50 of 190 µM. `CCOC(=O)/C=C/[C@H](CCC(N)=O)NC(=O)[C@H](C)NC(=O)[C@H](CC(C)C)NC(=O)OCc1ccccc1` gave a CC50 greater than 320 µM. Molecule `CCOC(=O)/C=C/[C@H](CCC(N)=O)NC(=O)[C@H](Cc1ccccc1)NC(=O)CNC(=O)OCc1ccccc1` has a CC50 greater than 320 µM. Molecule `CCOC(=O)/C=C/[C@H](CCC(N)=O)NC(=O)[C@H](Cc1ccccc1)NC(=O)[C@@H](NC(=O)OCc1ccccc1)[C@@H](C)CC` has a CC50 greater than 100 µM. In the case of `CCOC(=O)/C=C/[C@H](CCC(N)=O)NC(=O)[C@H](Cc1ccccc1)NC(=O)[C@H](CCc1ccccc1)NC(=O)OCc1ccccc1`, the CC50 is reported as greater than 320 µM. `CCOC(=O)/C=C/[C@H](CCC(N)=O)NC(=O)[C@H](CSC)NC(=O)[C@H](CC(C)C)NC(=O)OCc1ccccc1` gave a CC50 greater than 320 µM. `CCOC(=O)/C=C/[C@H](CCC(N)=O)NC(=O)[C@H](Cc1ccccc1)NC(=O)[C@H](CC(C)C)NC(=O)[C@@H](NC(C)=O)[C@@H](C)O` showed a CC50 greater than 100 µM. Molecule `CCOC(=O)/C=C/[C@H](CCC(N)=O)NC(=O)[C@H](Cc1ccccc1)NC(=O)[C@H](CCC(=O)O)NC(=O)OCc1ccccc1` has a CC50 greater than 320 µM. Work on `CCOC(=O)/C=C/[C@H](CCC(N)=O)NC(=O)[C@H](CSCC)NC(=O)[C@H](CC(C)C)NC(=O)OCc1ccccc1` yielded a CC50 greater than 320 µM. `CCOC(=O)/C=C/[C@H](CCC(=O)O)NC(=O)[C@H](Cc1ccccc1)NC(=O)[C@H](CC(C)C)NC(=O)OCc1ccccc1` showed a CC50 greater than 100 µM. `CCOC(=O)/C=C/[C@H](CCC(N)=O)NC(=O)[C@H](CC)NC(=O)[C@H](CC(C)C)NC(=O)OCc1ccccc1` gave a CC50 greater than 320 µM. `CCOC(=O)/C=C/[C@H](CCC(=O)NC(c1ccccc1)(c1ccccc1)c1ccccc1)NC(=O)[C@H](Cc1ccccc1)NC(=O)[C@H](CC(C)C)NC(=O)OCc1ccccc1` showed a CC50 greater than 320 µM.
